Experimental data taken from PubChem BioAssay (NCI).
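Assay format: 96-well plates, 48-hour exposure. TGI marks complete inhibition of growth.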

Assays:
Experiment in all cases: NCI-60 cell line screen, 48 h
OVCAR-8 ovarian = system: OVCAR-8 ovarian
RXF 393 renal = system: RXF 393 renal
HOP-62 NSCLC = system: HOP-62 NSCLC
OVCAR-3 ovarian = system: OVCAR-3 ovarian
MDA-N = system: MDA-N
NCI/ADR-RES ovarian = system: NCI/ADR-RES ovarian
HS 578T breast = system: HS 578T breast
CCRF-CEM leukemia = system: CCRF-CEM leukemia
SF-295 CNS = system: SF-295 CNS
RPMI-8226 leukemia = system: RPMI-8226 leukemia
EKVX NSCLC = system: EKVX NSCLC
NCI-H226 lung = system: NCI-H226 lung
MCF7 breast = system: MCF7 breast
TK-10 renal = system: TK-10 renal
HT29 colon = system: HT29 colon
PC-3 prostate = system: PC-3 prostate
M14 melanoma = system: M14 melanoma
T-47D breast = system: T-47D breast
SNB-75 CNS = system: SNB-75 CNS
DU-145 prostate = system: DU-145 prostate
NCI-H23 lung = system: NCI-H23 lung
OVCAR-5 ovarian = system: OVCAR-5 ovarian
A549 NSCLC = system: A549 NSCLC
UACC-257 melanoma = system: UACC-257 melanoma
A498 renal = system: A498 renal
SK-MEL-28 melanoma = system: SK-MEL-28 melanoma
SK-MEL-2 melanoma = system: SK-MEL-2 melanoma
BT-549 breast = system: BT-549 breast
LOX IMVI melanoma = system: LOX IMVI melanoma
UO-31 renal = system: UO-31 renal
NCI-H460 lung = system: NCI-H460 lung
OVCAR-4 ovarian = system: OVCAR-4 ovarian
IGROV1 ovarian = system: IGROV1 ovarian
SN12C renal = system: SN12C renal
HCC-2998 colon = system: HCC-2998 colon
SK-MEL-5 melanoma = system: SK-MEL-5 melanoma
SW-620 colon = system: SW-620 colon
SNB-19 CNS = system: SNB-19 CNS
HOP-92 NSCLC = system: HOP-92 NSCLC
786-0 renal = system: 786-0 renal
UACC-62 melanoma = system: UACC-62 melanoma
HCT-116 colon = system: HCT-116 colon
ACHN renal = system: ACHN renal
SK-OV-3 ovarian = system: SK-OV-3 ovarian
HCT-15 colon = system: HCT-15 colon
NCI-H522 lung = system: NCI-H522 lung
HL-60(TB) leukemia = system: HL-60(TB) leukemia
MALME-3M melanoma = system: MALME-3M melanoma
MDA-MB-231 breast = system: MDA-MB-231 breast
SF-268 CNS = system: SF-268 CNS
CAKI-1 renal = system: CAKI-1 renal
COLO 205 colon = system: COLO 205 colon
MDA-MB-435 = system: MDA-MB-435
KM12 colon = system: KM12 colon
K-562 leukemia = system: K-562 leukemia
MOLT-4 leukemia = system: MOLT-4 leukemia
U251 CNS = system: U251 CNS
SF-539 CNS = system: SF-539 CNS

Measured: TGI

CC(O)CCNC(=O)Nc1c(C(F)(F)F)cc(-c2ccccc2)[nH]c1=O (stereo not given)
> 100 µM: OVCAR-8 ovarian | RXF 393 renal | HOP-62 NSCLC | OVCAR-3 ovarian | MDA-N | NCI/ADR-RES ovarian | HS 578T breast | CCRF-CEM leukemia | SF-295 CNS | RPMI-8226 leukemia | EKVX NSCLC | NCI-H226 lung | MCF7 breast | TK-10 renal | HT29 colon | PC-3 prostate | M14 melanoma | T-47D breast | SNB-75 CNS | DU-145 prostate | NCI-H23 lung | OVCAR-5 ovarian | A549 NSCLC | UACC-257 melanoma | A498 renal | SK-MEL-28 melanoma | SK-MEL-2 melanoma | BT-549 breast | LOX IMVI melanoma | UO-31 renal | NCI-H460 lung | OVCAR-4 ovarian | IGROV1 ovarian | SN12C renal | HCC-2998 colon | SK-MEL-5 melanoma | SW-620 colon | SNB-19 CNS | HOP-92 NSCLC | 786-0 renal | UACC-62 melanoma | HCT-116 colon | ACHN renal | SK-OV-3 ovarian | HCT-15 colon | NCI-H522 lung | HL-60(TB) leukemia | MALME-3M melanoma | MDA-MB-231 breast | SF-268 CNS | CAKI-1 renal | COLO 205 colon | MDA-MB-435 | KM12 colon | K-562 leukemia | MOLT-4 leukemia | U251 CNS

OC1CSCCCSCCSCCCSC1
> 100 µM: OVCAR-8 ovarian | RXF 393 renal | HOP-62 NSCLC | OVCAR-3 ovarian | MDA-N | HS 578T breast | SF-295 CNS | RPMI-8226 leukemia | EKVX NSCLC | NCI-H226 lung | MCF7 breast | TK-10 renal | HT29 colon | PC-3 prostate | M14 melanoma | T-47D breast | SNB-75 CNS | DU-145 prostate | NCI-H23 lung | OVCAR-5 ovarian | A549 NSCLC | UACC-257 melanoma | A498 renal | SK-MEL-28 melanoma | SK-MEL-2 melanoma | BT-549 breast | LOX IMVI melanoma | UO-31 renal | NCI-H460 lung | OVCAR-4 ovarian | SF-539 CNS | IGROV1 ovarian | SN12C renal | HCC-2998 colon | SK-MEL-5 melanoma | SW-620 colon | SNB-19 CNS | HOP-92 NSCLC | 786-0 renal | UACC-62 melanoma | HCT-116 colon | ACHN renal | SK-OV-3 ovarian | HCT-15 colon | NCI-H522 lung | MDA-MB-231 breast | SF-268 CNS | CAKI-1 renal | COLO 205 colon | MDA-MB-435 | K-562 leukemia | MOLT-4 leukemia | U251 CNS
